# From paper PMC6244206, “C-Terminal Residue of Ultrashort Peptides Impacts on Molecular Self-Assembly, Hydrogelation, and Interaction with Small-Molecule Drugs” (Scientific Reports, 2018)
# Where “and” joins values, the source holds several entries; their conditions need not be identical. Equal values may be shown once.
# What was measured:
# [1] = Small-molecule drug elution studies from peptide hydrogels; type: physicochemical; conditions: for Drug loading capacity in the peptide hydrogels: SMD 2 mM in peptide hydrogels 20 mM (peptides 1A and 1B)
# Experimental: We compared the SMD elution profiles of the peptide hydrogels with the theoretical maximal amount of SMD that would diffuse from the hydrogel into the extra volume of PBS if there were no obstruction to diffusion.
# The peptides were weighed out in 4 mL-vials, after which phosphate-buffered saline (PBS) containing the small-molecule drug (SMD final concentration = 2 mM) was added to a final volume of 0.30 mL each. The peptide-SMD-PBS mixtures were then shaken and sonicated for 10 s, after which the mixtures were allowed to anneal for 24 h. After that, 0.75 mL of fresh PBS was slowly added with a pipettor to the surface of the hydrogel so as not to disturb the surface of the gel. After 24 h at 25 °C, the PBS was carefully extracted with a pipettor for UV/vis analysis; a fresh volume (0.75 mL) of PBS was then replaced. This process was repeated as many times as the number of pre-determined elution samples. The extracted PBS was transferred into a cuvette (pathlength = 10 mm) and analysed with an Agilent 8543 UV/visible spectrometer for the presence of the SMD. […] A control experiment was set up for each peptide hydrogel, for which no drug was added. This is to account for absorption at the respective wavelengths due to eluted peptide. The elution profile of each peptide is compared with a theoretical maximal elution profile, viz. the theoretical maximal amount of SMD that would diffuse from the hydrogel into the extra volume of PBS if there were no obstruction to diffusion. The cumulative eluted percentage of SMD at each point is given by: [1 − (1/3.5)^n] 100%, where n is the number of elution.
# [2] = cited from earlier work
# [3] = Gelation studies of peptides in PBS; type: physicochemical
# Experimental: Although peptide 1C could form a gel at 40 mg/mL (30 mM), the hydrogel formed was opaque and inhomogeneous; this is a big contrast to peptide 1A that forms a clear and transparent hydrogel (Fig. 3a). […] On the other hand, perhaps unsurprisingly, the tripeptides generally require higher concentrations to gel. Peptide 2A was previously reported to require a higher peptide concentration to gel than peptide 1A[50]. This has also been observed for peptide 2B, in which 30 mM is required (c.f. 15 mM for peptide 2A). […] As with peptide 1D, peptide 2D could not gel and only precipitated. […] When the hydrophilic components are dominant, the enhanced solubility reduces the driving forces for self-assembly. Consequently, hydrogelation is observed at markedly higher concentrations. Such a balance of hydrophilicity/hydrophobicity has been exploited (via enzymatic control) for the formulation of hydrogels[52],[53].
# All peptides were prepared via fluoren-9-ylmethoxycarbonyl (Fmoc)-based solid phase peptide synthesis and purified via reversed-phase high performance liquid chromatography-mass spectrometry (HPLC-MS) on an Agilent 6130 Quadrupole LC/MS system. Peptide hydrogels were prepared by weighing out the appropriate peptide mass in 2 mL-vials. After the requisite volume of phosphate-buffered saline (PBS) was added, the peptide-water mixture was shaken and sonicated for 10 s. […]
# [4] = PBS; previously reported; cited from earlier work
# Experimental: Although peptide 1C could form a gel at 40 mg/mL (30 mM), the hydrogel formed was opaque and inhomogeneous; this is a big contrast to peptide 1A that forms a clear and transparent hydrogel (Fig. 3a). […] This is a big contrast to peptides 1E and 2E, which were previously reported t ...
# [5] = Zeta potential measurements of peptide fibrils; type: physicochemical; conditions: in water, peptide 10 mM, 25 °C; mean of triplicate measurements
# Experimental: The zeta potential of the peptide fibrils was measured with an Anton Paar Litesizer 500 Particle Sizer. An omega zeta potential cuvette was utilised for the measurements, which was kept at a constant temperature of 25 °C. Triplicate measurements of each peptide sample were made at concentrations of 10 mM in water.
# [6] = Rheological studies of the peptide hydrogels; type: physicochemical; conditions: hydrogels 40 mg/mL in PBS, oscillatory strain sweep, 6.28 rad/s, 25 °C, triplicates
# Experimental: Viscoelastic properties of the hydrogels were assessed at 25 °C with an ARES-G2 rheometer (TA Instruments, Piscataway, NJ) in the 25.0 mm-diameter titanium parallel plate geometry and a gap distance of 0.8 mm. For oscillatory frequency sweep studies, the plate rotation was varied between 0.1–100 rad/s at a constant strain of 0.1%. For oscillatory strain sweep studies, the strain was varied between 0.001–100% at a constant frequency of 6.28 rad/s. Each experiment was carried out in triplicates. This procedure was also previously described by us[88].
# [7] = Solubility of peptides in phosphate-buffered saline to form clear solutions; type: physicochemical; conditions: pH 7.4
# Experimental: The peptides were prepared via standard solid-phase peptide synthesis. The purification of all peptides was straightforward, except for peptide 1D. […] As a result, it frequently precipitated on the reversed-phase column during HPLC (high performance liquid chromatography) purification with a gradient of acetonitrile/water, leading to poor yields (<10%). The solubilities of peptides 1 and 2 in phosphate-buffered saline (PBS; pH 7.4) to form clear solutions were then tested; peptides 1A and 2A were also assessed as references. […] As Table 1 indicates, the hexapeptides dissolve to a lower extent than the tripeptides. This is reflective of the greater propensity of the hexapeptides to self-assemble and aggregate due to their longer hydrophobic backbone. In addition, peptides with lysine and arginine dissolve to a greater extent due to their charged side chains at pH 7.4.
Hydrogel formation with doxorubicin ([1]; doxorubicin 2 mM in PBS),"Encapsulated doxorubicin eluted from peptide hydrogel ([1]; doxorubicin 2 mM in peptide hydrogel 20 mM, PBS pH 7.4, 25 °C, repeated elutions with 0.75 mL PBS, UV/vis 480 nm, n = 3)",Hydrogel formation with naltrexone ([1]; naltrexone 2 mM in PBS),Appearance of hydrogel at 40 mg/mL ([3]; 40 mg/mL in PBS),"Status of gel ([3]; phosphate-buffered saline, pH 7.4, at minimal gelation concentration)",Zeta potential [5],Yield stress / strain at which the hydrogel breaks down [6],Soluble peptide concentration [7],Compound,Drug loading capacity in the peptide hydrogels [1],pKa [2],Hydrogel formation with methotrexate ([1]; methotrexate 2 mM in PBS),Gelation concentration [4]
–,–,–,–,–,–,–,–,"O=C1CC[C@@]2(O)[C@H]3Cc4ccc(O)c5c4[C@@]2(CCN3CC2CC2)[C@H]1O5 [naltrexone, reference compound]",0.67 mg/g,~ 8.1,–,–
–,–,–,–,–,–,–,–,"CN(Cc1cnc2nc(N)nc(N)c2n1)c1ccc(C(=O)N[C@@H](CCC(=O)O)C(=O)O)cc1 [methotrexate, reference compound]",0.89 mg/g,–,–,–
formed stable hydrogels,40%,formed stable hydrogels,transparent hydrogels,"Clear, transparent",+33.40 ± 0.17 mV,3%,3 mg/mL,acetylated Leu-Ile-Val-Ala-Gly-Lys-NH2 [Peptide 1A],–,–,could do so with methotrexate (with some coagulation within the hydrogel),10 mg/mL and 6 mM
